Measured values published in article PMC9715595, “Optimization of the precursor supply for an enhanced FK506 production in Streptomyces tsukubaensis” (Frontiers in Bioengineering and Biotechnology, 2022).
One block for each compound: values may come before it.

Legend:
[1] = molecular target: T1, PipAf (Pip; LCD from A. friuliensis) (Actinoplanes friuliensis, UniProt U5VYY1); assay: X-ray crystal structure ([…] Å); format: binding; conditions: crystallised with 1 mM NAD+; cofactor modelled as NADH; one NADH per monomer
T1 construct: gene AFR_18570; full length, N-terminal His-tag (pET30 Ek/LIC), E. coli; monomer 339 residues, ~36 kDa, homodimer
T1 sequence (U5VYY1 1-339): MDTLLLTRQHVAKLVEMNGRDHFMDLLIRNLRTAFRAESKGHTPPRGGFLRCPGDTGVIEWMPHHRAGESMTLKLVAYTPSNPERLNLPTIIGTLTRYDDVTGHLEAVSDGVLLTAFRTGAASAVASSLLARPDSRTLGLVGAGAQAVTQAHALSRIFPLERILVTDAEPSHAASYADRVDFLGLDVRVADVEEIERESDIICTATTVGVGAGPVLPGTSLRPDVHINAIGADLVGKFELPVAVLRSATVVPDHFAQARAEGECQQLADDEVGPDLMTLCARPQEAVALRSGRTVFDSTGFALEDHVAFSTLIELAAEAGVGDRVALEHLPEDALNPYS

[2] = molecular target: T1, PipAf (Pip; LCD from A. friuliensis); assay: X-ray crystal structure ([…] Å); format: binding; conditions: co-crystallised with 140 mM lysine and 1 mM NAD+; NADH bound; pH 8.5; active site
[3] = molecular target: lysine cyclodeaminase PipAf from Actinoplanes friuliensis (Actinoplanes friuliensis); assay: SEC; gel filtration on Superdex 200, 150 mM NaCl, 25 mM HEPES pH 7.4; main peak corresponds to a dimer

Compound: NC(=O)C1=CN([C@@H]2O[C@H](COP(=O)(O)OP(=O)(O)OC[C@H]3O[C@@H](n4cnc5c(N)ncnc54)[C@H](O)[C@@H]3O)[C@@H](O)[C@H]2O)C=CC1 [NADH]
- X-ray crystal structure (1.3 Å) [1]: One molecule NADH binds per monomer via a canonical Rossman fold

Compound: NCCCC[C@H](N)C(=O)O [lysine]
- X-ray crystal structure (1.4 Å) [2]: Lysine binds in the active site running parallel to the nicotinamide ring

- stoichiometry N [3]: 2
Compound: lysine cyclodeaminase PipAf from Actinoplanes friuliensis (enzyme)
